Results reported in patent publication US9334289B2, “Cephem compound having catechol or pseudo-catechol structure” (SHIONOGI & CO., LTD., priority 2011, dated 2016).
Values after ≈ are worked out from the molar mass of the structure shown.

What follows are compounds tested on P. aeruginosa SR24837 (assay: MIC, CLSI broth microdilution, Test Example 1). Details: Pseudomonas aeruginosa, SR24837; PER-1 ESBL producing strain; cation-adjusted Mueller Hinton broth containing human apo-transferrin; 5×10^5 cfu/mL; read-out: Minimum Inhibitory Concentration (MIC) P. aeruginosa SR24837.
Type: cell-based
Protocol: (§1) Measurement of Minimum Inhibitory Concentration (MIC: μg/mL) was conducted according to CLSI (Clinical and Laboratory Standards Institute) method, and the amount of bacteria for inoculation was 5×10^5 cfu/mL, and cation-adjusted Mueller Hinton broth containing human apo-transferrin was used as a test medium, and the experiment was conducted using broth microdilution method. The bacteria used are listed below.

SMILES	MIC
CC(C)(O/N=C(\C(=O)N[C@@H]1C(=O)N2C(c3nnn[n-]3)=C(C[n+]3ccc4cc(O)c(O)cc4c3)CS[C@H]12)c1csc(N)n1)C(=O)[O-].[Na+] [Compound I-77]	≤ 0.031 µg/mL
CC(C)(O/N=C(\C(=O)N[C@@H]1C(=O)N2C(c3nnn[n-]3)=C(C[n+]3ccc(-c4ccc(O)c(O)c4Cl)cc3)CS[C@H]12)c1csc(N)n1)C(=O)[O-].[Na+] [Compound I-79]	0.063 µg/mL
CC(C)(O/N=C(\C(=O)N[C@@H]1C(=O)N2C(c3nnn[n-]3)=C(C[N+]34CCCC3(CNC(=O)c3ccc(O)c(O)c3Cl)CCC4)CS[C@H]12)c1cnc(N)s1)C(=O)[O-].[Na+] (some centres unmarked) [Compound I-80]	0.125 µg/mL

Results, then the compound that gave them:

MIC	SMILES
0.125 µg/mL (≈ 0.155 µM)	CC(C)(O/N=C(\C(=O)N[C@@H]1C(=O)N2C(c3nnn[nH]3)=C(C[n+]3cccc4c(NC(=O)c5ccc(O)c(O)c5Cl)cccc43)CS[C@H]12)c1csc(N)n1)C(=O)[O-] [Compound I-76]
0.125 µg/mL (≈ 0.155 µM)	CC(C)(O/N=C(\C(=O)N[C@@H]1C(=O)N2C(c3nnn[nH]3)=C(C[n+]3ccc(NC(=O)c4ccc(O)c(O)c4Cl)c4ccccc43)CS[C@H]12)c1csc(N)n1)C(=O)[O-] [Compound I-78]

What follows are compounds tested on P. aeruginosa SR27060 (assay: MIC, CLSI broth microdilution, Test Example 1). Details: Pseudomonas aeruginosa, SR27060; IMP-1 MBL producing strain (carbapenem resistance strain); cation-adjusted Mueller Hinton broth containing human apo-transferrin; 5×10^5 cfu/mL; read-out: Minimum Inhibitory Concentration (MIC) P. aeruginosa SR27060.
Type: cell-based
Protocol: as §1

SMILES	MIC
CC(C)(O/N=C(\C(=O)N[C@@H]1C(=O)N2C(c3nnn[n-]3)=C(C[n+]3ccc4cc(O)c(O)cc4c3)CS[C@H]12)c1csc(N)n1)C(=O)[O-].[Na+] [Compound I-77]	0.25 µg/mL
CC(C)(O/N=C(\C(=O)N[C@@H]1C(=O)N2C(c3nnn[n-]3)=C(C[n+]3ccc(-c4ccc(O)c(O)c4Cl)cc3)CS[C@H]12)c1csc(N)n1)C(=O)[O-].[Na+] [Compound I-79]	0.25 µg/mL
CC(C)(O/N=C(\C(=O)N[C@@H]1C(=O)N2C(c3nnn[n-]3)=C(C[N+]34CCCC3(CNC(=O)c3ccc(O)c(O)c3Cl)CCC4)CS[C@H]12)c1cnc(N)s1)C(=O)[O-].[Na+] (some centres unmarked) [Compound I-80]	0.25 µg/mL

Further lines, results first:

MIC	SMILES
0.5 µg/mL (≈ 0.62 µM)	CC(C)(O/N=C(\C(=O)N[C@@H]1C(=O)N2C(c3nnn[nH]3)=C(C[n+]3cccc4c(NC(=O)c5ccc(O)c(O)c5Cl)cccc43)CS[C@H]12)c1csc(N)n1)C(=O)[O-] [Compound I-76]
0.25 µg/mL (≈ 0.31 µM)	CC(C)(O/N=C(\C(=O)N[C@@H]1C(=O)N2C(c3nnn[nH]3)=C(C[n+]3ccc(NC(=O)c4ccc(O)c(O)c4Cl)c4ccccc43)CS[C@H]12)c1csc(N)n1)C(=O)[O-] [Compound I-78]

What follows are compounds tested on E. coli ATCCBAA-200 (assay: MIC, CLSI broth microdilution, Test Example 1). Details: Escherichia coli, ATCCBAA200; SHV-4 ESBL producing strain; cation-adjusted Mueller Hinton broth containing human apo-transferrin; 5×10^5 cfu/mL; read-out: Minimum Inhibitory Concentration (MIC) E. coli ATCC BAA-200.
Type: cell-based
Protocol: as §1

SMILES	MIC
CC(C)(O/N=C(\C(=O)N[C@@H]1C(=O)N2C(c3nnn[n-]3)=C(C[n+]3ccc4cc(O)c(O)cc4c3)CS[C@H]12)c1csc(N)n1)C(=O)[O-].[Na+] [Compound I-77]	0.063 µg/mL
CC(C)(O/N=C(\C(=O)N[C@@H]1C(=O)N2C(c3nnn[n-]3)=C(C[n+]3ccc(-c4ccc(O)c(O)c4Cl)cc3)CS[C@H]12)c1csc(N)n1)C(=O)[O-].[Na+] [Compound I-79]	1 µg/mL
CC(C)(O/N=C(\C(=O)N[C@@H]1C(=O)N2C(c3nnn[n-]3)=C(C[N+]34CCCC3(CNC(=O)c3ccc(O)c(O)c3Cl)CCC4)CS[C@H]12)c1cnc(N)s1)C(=O)[O-].[Na+] (some centres unmarked) [Compound I-80]	1 µg/mL

Next, values leading:

MIC	SMILES
0.5 µg/mL (≈ 0.62 µM)	CC(C)(O/N=C(\C(=O)N[C@@H]1C(=O)N2C(c3nnn[nH]3)=C(C[n+]3cccc4c(NC(=O)c5ccc(O)c(O)c5Cl)cccc43)CS[C@H]12)c1csc(N)n1)C(=O)[O-] [Compound I-76]
0.5 µg/mL (≈ 0.62 µM)	CC(C)(O/N=C(\C(=O)N[C@@H]1C(=O)N2C(c3nnn[nH]3)=C(C[n+]3ccc(NC(=O)c4ccc(O)c(O)c4Cl)c4ccccc43)CS[C@H]12)c1csc(N)n1)C(=O)[O-] [Compound I-78]

Each compound was assayed on A. baumannii SR27323 (assay: MIC, CLSI broth microdilution, Test Example 1). Details: Acinetobacter baumannii, SR27323; OXA-23, OXA-58 carbapenemase producing strain; cation-adjusted Mueller Hinton broth containing human apo-transferrin; 5×10^5 cfu/mL; read-out: Minimum Inhibitory Concentration (MIC) A. baumannii SR27323.
Type: cell-based
Protocol: as §1

SMILES	MIC
CC(C)(O/N=C(\C(=O)N[C@@H]1C(=O)N2C(c3nnn[n-]3)=C(C[n+]3ccc4cc(O)c(O)cc4c3)CS[C@H]12)c1csc(N)n1)C(=O)[O-].[Na+] [Compound I-77]	0.125 µg/mL
CC(C)(O/N=C(\C(=O)N[C@@H]1C(=O)N2C(c3nnn[n-]3)=C(C[n+]3ccc(-c4ccc(O)c(O)c4Cl)cc3)CS[C@H]12)c1csc(N)n1)C(=O)[O-].[Na+] [Compound I-79]	0.125 µg/mL
CC(C)(O/N=C(\C(=O)N[C@@H]1C(=O)N2C(c3nnn[n-]3)=C(C[N+]34CCCC3(CNC(=O)c3ccc(O)c(O)c3Cl)CCC4)CS[C@H]12)c1cnc(N)s1)C(=O)[O-].[Na+] (some centres unmarked) [Compound I-80]	2 µg/mL

Further lines, results first:

MIC	SMILES
0.5 µg/mL (≈ 0.62 µM)	CC(C)(O/N=C(\C(=O)N[C@@H]1C(=O)N2C(c3nnn[nH]3)=C(C[n+]3cccc4c(NC(=O)c5ccc(O)c(O)c5Cl)cccc43)CS[C@H]12)c1csc(N)n1)C(=O)[O-] [Compound I-76]
0.25 µg/mL (≈ 0.31 µM)	CC(C)(O/N=C(\C(=O)N[C@@H]1C(=O)N2C(c3nnn[nH]3)=C(C[n+]3ccc(NC(=O)c4ccc(O)c(O)c4Cl)c4ccccc43)CS[C@H]12)c1csc(N)n1)C(=O)[O-] [Compound I-78]

These compounds were tested on K. pneumoniae ATCCBAA-1705 (assay: MIC, CLSI broth microdilution, Test Example 1). Details: Klebsiella pneumoniae, ATCCBAA1705; KPC-2 carbapenemase producing strain; cation-adjusted Mueller Hinton broth containing human apo-transferrin; 5×10^5 cfu/mL; read-out: Minimum Inhibitory Concentration (MIC) K. pneumoniae ATCCBAA-1705.
Type: cell-based
Protocol: as §1

SMILES	MIC
CC(C)(O/N=C(\C(=O)N[C@@H]1C(=O)N2C(c3nnn[n-]3)=C(C[n+]3ccc4cc(O)c(O)cc4c3)CS[C@H]12)c1csc(N)n1)C(=O)[O-].[Na+] [Compound I-77]	≤ 0.031 µg/mL
CC(C)(O/N=C(\C(=O)N[C@@H]1C(=O)N2C(c3nnn[n-]3)=C(C[n+]3ccc(-c4ccc(O)c(O)c4Cl)cc3)CS[C@H]12)c1csc(N)n1)C(=O)[O-].[Na+] [Compound I-79]	≤ 0.031 µg/mL
CC(C)(O/N=C(\C(=O)N[C@@H]1C(=O)N2C(c3nnn[n-]3)=C(C[N+]34CCCC3(CNC(=O)c3ccc(O)c(O)c3Cl)CCC4)CS[C@H]12)c1cnc(N)s1)C(=O)[O-].[Na+] (some centres unmarked) [Compound I-80]	≤ 0.031 µg/mL

The remaining lines, values ahead:

MIC	SMILES
≤ 0.031 µg/mL	CC(C)(O/N=C(\C(=O)N[C@@H]1C(=O)N2C(c3nnn[nH]3)=C(C[n+]3cccc4c(NC(=O)c5ccc(O)c(O)c5Cl)cccc43)CS[C@H]12)c1csc(N)n1)C(=O)[O-] [Compound I-76]
≤ 0.031 µg/mL	CC(C)(O/N=C(\C(=O)N[C@@H]1C(=O)N2C(c3nnn[nH]3)=C(C[n+]3ccc(NC(=O)c4ccc(O)c(O)c4Cl)c4ccccc43)CS[C@H]12)c1csc(N)n1)C(=O)[O-] [Compound I-78]

What follows are compounds tested on E. coli ATCCBAA-199 (assay: MIC, CLSI broth microdilution, Test Example 1). Details: Escherichia coli, ATCCBAA199; SHV-3 ESBL producing strain; cation-adjusted Mueller Hinton broth containing human apo-transferrin; 5×10^5 cfu/mL; read-out: Minimum Inhibitory Concentration (MIC) E. coli ATCC BAA-199.
Type: cell-based
Protocol: as §1

SMILES	MIC
CC(C)(O/N=C(\C(=O)N[C@@H]1C(=O)N2C(c3nnn[n-]3)=C(C[n+]3ccc4cc(O)c(O)cc4c3)CS[C@H]12)c1csc(N)n1)C(=O)[O-].[Na+] [Compound I-77]	≤ 0.031 µg/mL
CC(C)(O/N=C(\C(=O)N[C@@H]1C(=O)N2C(c3nnn[n-]3)=C(C[n+]3ccc(-c4ccc(O)c(O)c4Cl)cc3)CS[C@H]12)c1csc(N)n1)C(=O)[O-].[Na+] [Compound I-79]	0.5 µg/mL
CC(C)(O/N=C(\C(=O)N[C@@H]1C(=O)N2C(c3nnn[n-]3)=C(C[N+]34CCCC3(CNC(=O)c3ccc(O)c(O)c3Cl)CCC4)CS[C@H]12)c1cnc(N)s1)C(=O)[O-].[Na+] (some centres unmarked) [Compound I-80]	0.5 µg/mL

Other lines, results leading:

MIC	SMILES
0.25 µg/mL (≈ 0.31 µM)	CC(C)(O/N=C(\C(=O)N[C@@H]1C(=O)N2C(c3nnn[nH]3)=C(C[n+]3cccc4c(NC(=O)c5ccc(O)c(O)c5Cl)cccc43)CS[C@H]12)c1csc(N)n1)C(=O)[O-] [Compound I-76]
0.25 µg/mL (≈ 0.31 µM)	CC(C)(O/N=C(\C(=O)N[C@@H]1C(=O)N2C(c3nnn[nH]3)=C(C[n+]3ccc(NC(=O)c4ccc(O)c(O)c4Cl)c4ccccc43)CS[C@H]12)c1csc(N)n1)C(=O)[O-] [Compound I-78]

What follows are compounds tested on P. aeruginosa SR24 (assay: MIC, CLSI broth microdilution, Test Example 1). Details: Pseudomonas aeruginosa, SR24; Ceftazidime resistance strain; cation-adjusted Mueller Hinton broth containing human apo-transferrin; 5×10^5 cfu/mL; read-out: Minimum Inhibitory Concentration (MIC) P. aeruginosa SR24.
Type: cell-based

SMILES	MIC
CC(C)(O/N=C(\C(=O)N[C@@H]1C(=O)N2C(c3nnn[n-]3)=C(C[n+]3ccc4cc(O)c(O)cc4c3)CS[C@H]12)c1csc(N)n1)C(=O)[O-].[Na+] [Compound I-77]	≤ 0.031 µg/mL
CC(C)(O/N=C(\C(=O)N[C@@H]1C(=O)N2C(c3nnn[n-]3)=C(C[n+]3ccc(-c4ccc(O)c(O)c4Cl)cc3)CS[C@H]12)c1csc(N)n1)C(=O)[O-].[Na+] [Compound I-79]	≤ 0.031 µg/mL
CC(C)(O/N=C(\C(=O)N[C@@H]1C(=O)N2C(c3nnn[n-]3)=C(C[N+]34CCCC3(CNC(=O)c3ccc(O)c(O)c3Cl)CCC4)CS[C@H]12)c1cnc(N)s1)C(=O)[O-].[Na+] (some centres unmarked) [Compound I-80]	≤ 0.031 µg/mL

Now from value to compound:

MIC	SMILES
0.125 µg/mL (≈ 0.155 µM)	CC(C)(O/N=C(\C(=O)N[C@@H]1C(=O)N2C(c3nnn[nH]3)=C(C[n+]3cccc4c(NC(=O)c5ccc(O)c(O)c5Cl)cccc43)CS[C@H]12)c1csc(N)n1)C(=O)[O-] [Compound I-76]
0.125 µg/mL (≈ 0.155 µM)	CC(C)(O/N=C(\C(=O)N[C@@H]1C(=O)N2C(c3nnn[nH]3)=C(C[n+]3ccc(NC(=O)c4ccc(O)c(O)c4Cl)c4ccccc43)CS[C@H]12)c1csc(N)n1)C(=O)[O-] [Compound I-78]
